Results on seven compounds are retold here after publication PMC3816717 (Bioorganic & medicinal chemistry, 2011).

One test has as its target T1, hCD22 (Homo sapiens, UniProt P20273).
T1 sequence (P20273 20-326 limits assumed): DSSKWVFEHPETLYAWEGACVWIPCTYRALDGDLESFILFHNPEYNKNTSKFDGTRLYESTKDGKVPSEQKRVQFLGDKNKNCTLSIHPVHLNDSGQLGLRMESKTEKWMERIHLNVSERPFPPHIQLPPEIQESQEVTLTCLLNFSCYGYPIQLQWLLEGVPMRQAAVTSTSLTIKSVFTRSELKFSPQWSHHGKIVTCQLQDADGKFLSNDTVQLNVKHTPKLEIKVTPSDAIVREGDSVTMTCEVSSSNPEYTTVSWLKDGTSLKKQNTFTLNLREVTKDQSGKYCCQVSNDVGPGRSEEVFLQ
Put plainly: Competition ELISA. It is filed as binding. For orientation: ELISA stands for enzyme-linked immunosorbent assay.

The next test has as its target mCD22 (Mus musculus, UniProt P35329). Kind of test: Competition ELISA with biotinylated form of 1, mCD22Fc. It is filed as binding, murine.

Broadly, the IC50 is the concentration needed to halve the response being measured. Read a low IC50 as greater potency. With `O=C(Cc1ccc(-c2ccc(O)cc2)cc1)NC[C@@H](O)[C@@H](O)[C@@H]1O[C@@](OCc2ccc(-c3ccccc3)cc2)(C(=O)O)C[C@H](O)[C@H]1NC(=O)CO` [Compound 6], the IC50 on hCD22 came to 380 nM. In the case of `COc1ccc(O[C@@H]2O[C@H](CO[C@]3(C(=O)O)C[C@H](O)[C@@H](NC(=O)CO)[C@H]([C@H](O)[C@H](O)CNCc4ccc(-c5ccc(O)cc5)cc4)O3)[C@H](O)[C@H](O)[C@H]2O)cc1` [Compound 2, 9-(4'-hydroxy-4-biphenyl)methylamino-9-deoxy-Neu5Gcα2-6GalOMP, reference compound], on hCD22, the IC50 turned out to be 3290 ± 330 nM. For `O=C(CO)N[C@H]1[C@H]([C@H](O)[C@H](O)CNCc2ccc(-c3ccc(O)cc3)cc2)O[C@@](OCc2ccc(-c3ccccc3)cc2)(C(=O)O)C[C@@H]1O` [Compound 9, (4-Biphenyl)methyl 3,5,9-trideoxy-5-glycolamido-9-(4′-hydroxy-4-biphenyl) methylamino-D-glycero-α-D-galacto-2-nonulopyranosidonic acid], the IC50 at hCD22 is 2240 ± 280 nM. Regarding `COc1ccc(O[C@@H]2O[C@H](CO[C@]3(C(=O)O)C[C@H](O)[C@@H](NC(=O)CO)[C@H]([C@H](O)[C@H](O)CNC(=O)Cc4ccc(-c5ccc(O)cc5)cc4)O3)[C@H](O)[C@H](O)[C@H]2O)cc1` [Compound 1, 9-(4'-hydroxy-4-biphenyl)acetamido-9-deoxy-Neu5Gcα2-6GalOMP, reference compound], the IC50 at hCD22 was found to be 3270 ± 620 nM. The same measure, in the same setting: for `O=C(Cc1ccc(-c2ccc(O)cc2)cc1)NC[C@@H](O)[C@@H](O)[C@@H]1O[C@@](OCc2ccccc2)(C(=O)O)C[C@H](O)[C@H]1NC(=O)CO` [Compound 5, benzyl 3,5,9-trideoxy-5-glycolamido-9-(4′-hydroxy-4-biphenyl)acetamido-D-glycero-α-D-galacto-2-nonulopyranosidonic acid] the value was 240 ± 50 nM; for `O=C(CO)N[C@H]1[C@H]([C@H](O)[C@H](O)CNCc2ccc(-c3ccc(O)cc3)cc2)O[C@@](OCc2ccccc2)(C(=O)O)C[C@@H]1O` [Compound 8, Benzyl 3,5,9-trideoxy-5-glycolamido-9-(4′-hydroxy-4-biphenyl)methylamino-D-glycero-α-D-galacto-2-nonulopyranosidonic acid], 2750 ± 1300 nM. In the case of `O=C(Cc1ccc(-c2ccc(F)cc2)cc1)NC[C@@H](O)[C@@H](O)[C@@H]1O[C@@](OCc2ccccc2)(C(=O)O)C[C@H](O)[C@H]1NC(=O)CO` [Compound 7, Benzyl 3,5,9-trideoxy-5-glycolamido-9-(4′-fluoro-4-biphenyl)acetamido-D-glycero-α-D-galacto-2-nonulopyranosidonic acid], on mCD22, the “fold less potent than 5 for CD22” value is 50 fold.
